Experimental data as given in patent US20080182859A1 (Curis, Inc., priority 2006, published 2008).
Structures can show the parent of a compound that is named as a salt.

Key:
[1] = test system: C57BL/6 male mice; assay: C57BL/6 hair growth after topical dosing; type: in vivo, mouse; details: shaved lower back, dosed topically once, visually graded for melanogenesis and hair regrowth
Description: (§1) A mouse model of male pattern baldness is used to investigate the effectiveness of the present compounds for growing hair. Agonists for the sonic hedgehog pathway that act by binding and activating Smoothened were tested in a formulation of 50:30:20 PG:EtOH:water or 5:95 DMSO:acetone vehicle. C57BL/6 male mice (48-52 days old on arrival) from Charles River Labs were used on the study. The mice were housed and cared for according to established procedures. Food and water were ad libitum. On Day 0, the mice were shaved on their lower back, an area of ˜1.5 inches x ˜2 inches with Wahl clippers using a surgical blade. On day −3, the mice were anesthetized with isoflurane, their back was rinsed with a pad of 70% ethanol, a placebo pellet or a DHT pellet (2.5 mg 21 day pellet) were implanted subcutaneously between the shoulder blades with a 10 gauge trochar. DHT pellet transplantation results in maintenance of existing hair follicles in the resting (telogen) phase. The hole was stapled with a sterile autoclip and the mice were returned to their cage after awaking. The mice were dosed topically once and visually graded daily, except weekends, for melanogenesis and hair regrowth of fur in the dosed area (Table 4).

[2] = test system: C57BL/6 male mice; assay: DHT-induced alopecia (mouse model of male pattern baldness); type: in vivo; details: C57BL/6 male mice with subcutaneous DHT pellet (2.5 mg 21 day), dosed topically once, visually graded for hair regrowth
Description: as §1
In the absence of treatment with the present compounds, the follicles remain in telogen rather than following the normal time course of the mouse hair cycle.

[3] = test system: sonic hedgehog pathway; assay: Human hedgehog reporter assay Daoy-GliLuc (DGL); type: cell-based; details: Daoy human medulloblastoma cells, Gli-luciferase reporter; read-out: Daoy Avg. EC50
Outline: (§2)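 Stable Gli-promoter luciferase reporter lines (human HepM, Daoy; mouse S12) plated at 10,000–20,000 cells/well, switched to 0.5% FBS after 48–72 h, then given compound (1–5 μM; 11-point 1:3 dose curves) with or without octyl-modified hedgehog protein (1–5 ng/ml) for 24 h. Luminescence read; AMAX vs plate controls and EC50 derived.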

[4] = test system: sonic hedgehog pathway; assay: Hedgehog pathway Gli-luciferase reporter assay, TM3 cells; type: cell-based; details: TM3 mouse Leydig cells
Outline: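 Reporter cells stably selected after gli-luciferase plasmid transfection; test article dosed over 11 points (1:3). Read as luminescence after 24 h treatment in 0.5% serum; activity >20% AMAX versus plate controls deemed active.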

[5] = test system: sonic hedgehog pathway; assay: Human hedgehog reporter assay HEPM-GliLuc (HGL); type: cell-based; details: HepM human embryonic palatal mesenchymal cells, Gli-luciferase reporter
Outline: as §2

[6] = test system: sonic hedgehog pathway; assay: Hedgehog pathway Gli-luciferase reporter assay, S12 cells; type: cell-based; details: S12 mouse embryonic mesenchymal cells, read-out: S12 Avg. EC50
Outline: as §2

Structure (SMILES) | C57BL/6 Hair Growth [1] | Androgenetic Alopecia [2] | EC50 [3] [nM] | EC50 [4] [nM] | EC50 [5] [nM] | EC50 [6] [nM]
CN[C@H]1CC[C@H](N(Cc2cc(-c3ccccc3)ccc2OC)C(=O)c2sc3ccccc3c2Cl)CC1 | yes | yes | – | – | – | –
CN[C@H]1CC[C@H](N(Cc2cc(-c3cc(C)nc(C)c3)ccc2OC)C(=O)c2sc3ccccc3c2Cl)CC1 | yes | yes | – | – | – | –
CN[C@H]1CC[C@H](N(Cc2cc(-c3ccc(C(N)=O)cc3)ccc2OC)C(=O)c2sc3c(F)ccc(F)c3c2Cl)CC1 | yes | yes | – | – | – | –
CN[C@H]1CC[C@H](N(Cc2cc(-c3ccnc(C)c3)ccc2OC)C(=O)c2sc3ccccc3c2Cl)CC1 | yes | yes | – | – | – | –
CN[C@H]1CC[C@H](N(Cc2cc(-c3ccc(N)nc3)ccc2OC)C(=O)c2sc3cccc(F)c3c2Cl)CC1 | yes | yes | – | – | – | –
CN[C@H]1CC[C@H](N(Cc2cc(-c3ccc(S(C)(=O)=O)cc3)ccc2OC)C(=O)c2sc3ccccc3c2Cl)CC1 | yes | yes | – | – | – | –
CCOc1ccc(-c2ccc(C)nc2)cc1CN(C(=O)c1sc2ccccc2c1Cl)[C@H]1CC[C@H](NC)CC1 | yes | – | – | – | – | –
CN[C@H]1CC[C@H](N(Cc2cc(-c3ccnc(C(=O)N(C)C)c3)ccc2OC)C(=O)c2sc3c(F)ccc(F)c3c2Cl)CC1 | yes | yes | – | – | – | –
CNC1CCC(N(Cc2cc(-c3ccncc3)ccc2OC)C(=O)c2sc3ccccc3c2Cl)CC1 (centres unmarked) | yes | yes | – | – | – | –
CN[C@H]1CC[C@H](N(Cc2cc(-c3ccc(NS(C)(=O)=O)nc3)ccc2OC)C(=O)c2sc3c(F)ccc(F)c3c2Cl)CC1 | yes | – | – | – | – | –
CCOc1ccc(-c2ccc(C#N)cc2)cc1CN(C(=O)c1sc2ccccc2c1Cl)[C@H]1CC[C@H](NC)CC1 | yes | – | – | – | – | –
CN[C@H]1CC[C@H](N(Cc2cc(-c3ccnc(C(=O)O)c3)ccc2OC)C(=O)c2sc3c(F)ccc(F)c3c2Cl)CC1 | no | – | – | – | – | –
CN[C@H]1CC[C@@H](N(Cc2cc(-c3cccnc3)ccc2OC)C(=O)c2sc3c(F)ccc(F)c3c2Cl)CC1 [Compound 361, 3-Chloro-4,7-difluoro-benzo[b]thiophene-2-carboxylic acid (2-methoxy-5-pyridin-3-yl-benzyl)-(4-methylamino-cyclohexyl)-amide dihydrochloride] | – | – | < 50 | < 50 | < 50 | < 50
CN[C@H]1CC[C@@H](N(Cc2cc(-c3ccccn3)ccc2OC)C(=O)c2sc3c(F)ccc(F)c3c2Cl)CC1 [Compound 367, 3-Chloro-4,7-difluoro-benzo[b]thiophene-2-carboxylic acid (2-methoxy-5-pyridin-2-yl-benzyl)-(4-methylamino-cyclohexyl)-amide dihydrochloride] | – | – | < 50 | < 50 | < 50 | < 50
CN[C@H]1CC[C@H](N(Cc2cc(-c3ccnc(C(=O)OC)c3)ccc2OC)C(=O)c2sc3c(F)ccc(F)c3c2Cl)CC1 [Compound R5, Methyl 4-(3-{[(3-chloro-4,7-difluoro-benzo[b]thiophene-2-carbonyl)-(4-methylamino-cyclohexyl)-amino]-methyl}-4-methoxy-phenyl)-pyridine-2-carboxylate] | – | – | < 50 | < 50 | < 50 | < 50
CN[C@H]1CC[C@@H](N(Cc2cc(-c3ccnc(C(=O)N(C)C)c3)ccc2OC)C(=O)c2sc3c(F)ccc(F)c3c2Cl)CC1 [Compound R9, 4-(3-{[(3-Chloro-4,7-difluoro-benzo[b]thiophene-2-carbonyl)-(4-methylamino-cyclohexyl)-amino]-methyl}-4-methoxy-phenyl)-pyridine-2-carboxylic acid dimethylamide dihydrochloride] | – | – | < 50 | < 50 | < 50 | < 50
CN[C@H]1CC[C@H](N(Cc2cc(-c3ccnc(C(=O)OC)c3)ccc2OC)C(=O)c2sc3c(F)ccc(F)c3c2Cl)CC1 [drawing 714] | yes | yes | – | – | – | –
